Values joined by “and” are separate entries in the source; they are usually repeats but may differ in a detail not shown here. Equal entries are not always repeated. Where two headings read alike, the source gives them in different places.
Columns and labels:
CB2 cannabinoid receptor [1] = target: T1, CB2 cannabinoid receptor (Homo sapiens, UniProt P34972); test: pS335/pS336-CB2 7TM phosphorylation assay; assay type: cell-based; settings: for pS335/pS336 (CB2 Phosphorylation Assay): raw duplicate readings
T1 construct: host or cells: HEK293 (CB2-HEK293)

CB2 cannabinoid receptor [2] = target: T1, CB2 cannabinoid receptor; test: pT338/pT339-CB2 7TM phosphorylation assay; assay type: cell-based; settings: for pT338/pT339-CB2 phosphorylation (OD405): raw duplicate readings
MOP, GRK2 = MOP, GRK2 (Mus musculus, UniProt P42866); settings: for GRK2 recruitment, normalised: normalized to 10 µM DAMGO
Description: Agonist-dependent binding of GRK2/3 and arrestin1/2 to a MOP was determined using a β-galactosidase complementation assay as previously described[47]. […] Cells were plated in 48-well plates and grown for 48 h. After 60 min of agonist exposure, a cell lysis reagent was added, and luminescence was recorded with a FlexStation 3 microplate reader (Molecular Devices).

[3] = tested on: MOP (GIRK2 channel activation); test: GIRK channel membrane potential assay (G protein signaling); assay type: cell-based, mouse; settings: for values normalised to 1µM DAMGO, mean: mean of replicates; for values normalised to 1µM DAMGO (individual values): single replicate values
Description: To analyze Gi signaling, changes in membrane potential produced by activation of G protein-gated inwardly rectifying potassium channel (GIRK) were measured as previously described[50],[51]. HEK293 cells were stably transfected with HA-MOP and GFP-conjugated GIRK2 channel plasmids (OriGene). The cells were then seeded in 96-well plates and allowed to grow at 37 °C in 5% CO2 for 48 h. […] A membrane potential dye (FLIPR Membrane Potential kit BLUE, Molecular Devices R8034) was reconstituted according to the manufacturer’s instructions. To each well, 90 μl of the HBSS/HEPES buffer solution and an equal volume of the membrane potential dye were added to a final volume of 180 μl per well. The cells were then incubated at 37 °C for 45 min. Test compounds were prepared in buffer solution containing HBSS and 20 mM HEPES solution (pH 7.4) at tenfold the final concentration to be measured. […] Baseline readings were taken every 1.8 s for 1 min. […] The change in dye fluorescence was recorded for 240 s with SoftMax Pro 5.4 software. Peak fluorescence values were obtained after subtraction of baseline readings for each sample and then used to calculate concentration–response curves using Origin.

WT-HEK293 cells = test: [3H]DAMGO saturation binding, WT-HEK293 (native) membranes
MOP = target: T2, MOP (Mus musculus, UniProt P42866); test: [3H]DAMGO saturation binding, MOP-HEK293 membranes
T2 construct: host or cells: HEK293 (Control-HEK293 or GRK-knockout clones), stably transfected
T2 sequence (P42866 whole entry): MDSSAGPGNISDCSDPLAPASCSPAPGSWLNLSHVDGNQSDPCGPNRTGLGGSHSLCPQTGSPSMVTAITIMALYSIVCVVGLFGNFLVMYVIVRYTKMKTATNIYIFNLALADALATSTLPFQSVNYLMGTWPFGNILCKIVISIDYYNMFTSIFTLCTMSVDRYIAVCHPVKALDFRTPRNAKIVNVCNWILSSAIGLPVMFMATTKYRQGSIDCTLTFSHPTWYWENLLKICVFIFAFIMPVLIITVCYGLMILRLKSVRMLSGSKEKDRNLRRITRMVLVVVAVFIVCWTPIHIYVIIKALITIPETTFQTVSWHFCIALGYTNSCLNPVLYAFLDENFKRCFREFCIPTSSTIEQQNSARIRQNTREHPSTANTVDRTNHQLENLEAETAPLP

T1 sequence (P34972 whole entry): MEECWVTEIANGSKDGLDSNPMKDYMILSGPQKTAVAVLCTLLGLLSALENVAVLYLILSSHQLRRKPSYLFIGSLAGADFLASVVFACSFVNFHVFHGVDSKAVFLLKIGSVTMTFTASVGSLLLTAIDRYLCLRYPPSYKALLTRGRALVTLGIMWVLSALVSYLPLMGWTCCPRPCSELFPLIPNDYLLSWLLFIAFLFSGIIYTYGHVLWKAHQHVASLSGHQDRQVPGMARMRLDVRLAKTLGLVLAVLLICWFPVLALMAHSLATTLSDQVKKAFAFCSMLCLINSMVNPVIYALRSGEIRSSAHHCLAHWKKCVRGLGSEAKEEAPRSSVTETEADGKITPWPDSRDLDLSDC
MOP, GRK2, sequence (P25098 whole entry): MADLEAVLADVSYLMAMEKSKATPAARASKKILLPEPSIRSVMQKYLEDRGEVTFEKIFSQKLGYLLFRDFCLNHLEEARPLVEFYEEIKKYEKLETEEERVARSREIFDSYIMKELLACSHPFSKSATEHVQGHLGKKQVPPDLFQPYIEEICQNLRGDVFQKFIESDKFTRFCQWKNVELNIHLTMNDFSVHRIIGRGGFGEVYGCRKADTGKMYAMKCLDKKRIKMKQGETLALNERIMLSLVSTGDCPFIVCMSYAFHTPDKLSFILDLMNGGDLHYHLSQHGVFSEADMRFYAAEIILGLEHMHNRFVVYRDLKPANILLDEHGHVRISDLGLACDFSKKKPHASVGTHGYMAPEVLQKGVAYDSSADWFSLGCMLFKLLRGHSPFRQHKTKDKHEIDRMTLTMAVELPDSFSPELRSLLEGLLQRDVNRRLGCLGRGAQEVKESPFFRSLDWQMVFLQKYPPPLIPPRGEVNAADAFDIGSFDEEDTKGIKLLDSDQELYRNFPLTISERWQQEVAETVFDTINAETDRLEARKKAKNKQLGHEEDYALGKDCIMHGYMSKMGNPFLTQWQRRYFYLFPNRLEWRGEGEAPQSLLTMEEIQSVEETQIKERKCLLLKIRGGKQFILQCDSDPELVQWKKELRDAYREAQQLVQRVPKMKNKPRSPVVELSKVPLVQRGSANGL
MOP, GRK2, sequence (P42866 whole entry): as the sequence (P42866 whole entry) above

CCCCCCC(C)(C)c1ccc([C@@H]2C[C@H](O)CC[C@H]2CCCO)c(O)c1 [CP55940]
OD405 min pS335/pS336-CB2 (CB2 cannabinoid receptor [1]): 0.38
pS335/pS336 (CB2 Phosphorylation Assay) (CB2 cannabinoid receptor [1]; CP55940 1e-6 µM): 0.4195 and 0.458 and 0.3421
pS335/pS336 (CB2 Phosphorylation Assay) (CB2 cannabinoid receptor [1]; CP55940 1e-5 µM): 0.3429 and 0.4547 and 0.4707 and 0.3409 and 0.3589 and 0.38
pS335/pS336 (CB2 Phosphorylation Assay) (CB2 cannabinoid receptor [1]; CP55940 0.0001 µM): 0.3452 and 0.3952 and 0.4236 and 0.425 and 0.3513 and 0.3869
pS335/pS336 (CB2 Phosphorylation Assay) (CB2 cannabinoid receptor [1]; CP55940 0.001 µM): 0.3318 and 0.3924 and 0.4101 and 0.3997 and 0.3583
pS335/pS336 (CB2 Phosphorylation Assay) (CB2 cannabinoid receptor [1]; CP55940 0.1 µM): 0.8954
pS335/pS336 (CB2 Phosphorylation Assay) (CB2 cannabinoid receptor [1]; CP55940 1 µM): 1.0018 and 0.9312 and 1.0017 and 0.8185
pS335/pS336 (CB2 Phosphorylation Assay) (CB2 cannabinoid receptor [1]; CP55940 10 µM): 0.9538 and 0.8534
OD405 max pT338/pT339-CB2 (CB2 cannabinoid receptor [2]): 1.74
pT338/pT339-CB2 phosphorylation (OD405) (CB2 cannabinoid receptor [2]; CP55940 0.01 µM): 0.418 and 0.427 and 0.4081 and 0.4835 and 0.513
pT338/pT339-CB2 phosphorylation (OD405) (CB2 cannabinoid receptor [2]; CP55940 0.1 µM): 0.4372 and 0.4959 and 0.4415 and 0.4741 and 0.5035 and 0.468
pT338/pT339-CB2 phosphorylation (OD405) (CB2 cannabinoid receptor [2]; CP55940 0.3 µM): 0.4559 and 0.4962 and 0.7064 and 0.6812
pT338/pT339-CB2 phosphorylation (OD405) (CB2 cannabinoid receptor [2]; CP55940 1 µM): 0.467 and 0.4332 and 0.3917 and 0.4407 and 0.4084 and 0.4786
pT338/pT339-CB2 phosphorylation (OD405) (CB2 cannabinoid receptor [2]; CP55940 3 µM): 0.4766 and 0.4184 and 0.4965 and 0.6601
pT338/pT339-CB2 phosphorylation (OD405) (CB2 cannabinoid receptor [2]; CP55940 10 µM): 1.4013 and 1.5745 and 1.5305
pT338/pT339-CB2 phosphorylation (OD405) (CB2 cannabinoid receptor [2]; CP55940 30 µM): 1.5241
pT338/pT339-CB2 phosphorylation (OD405) (CB2 cannabinoid receptor [2]; CP55940 100 µM): 1.603 and 1.5834 and 1.3626

C[C@@H](NC(=O)[C@@H](N)Cc1ccc(O)cc1)C(=O)NCC(=O)N(C)[C@@H](Cc1ccccc1)C(=O)NCCO [DAMGO, [D-Ala^2,N-MePhe^4,Gly-ol]-enkephalin]
GRK2 recruitment, raw value (MOP, GRK2; agonist 0.01 µM): 1.0365 and 0.9786 and 1.1651 and 0.7672
GRK2 recruitment, raw value (MOP, GRK2; agonist 0.1 µM): 1.7391 and 1.2836 and 1.7883 and 1.2791
GRK2 recruitment, raw value (MOP, GRK2; agonist 1 µM): 3.3164 and 2.1606 and 3.0001 and 2.3217
GRK2 recruitment, normalised (MOP, GRK2; agonist 1 µM): 102.84% and 51.53% and 88.80% and 58.68%
GRK2 recruitment, raw value (MOP, GRK2; agonist 10 µM): 3.4288 and 3.1599 and 2.7372 and 3.6836
GRK2 recruitment, normalised (MOP, GRK2; agonist 10 µM): 107.83% and 95.89% and 77.13% and 119.15%
GRK2 recruitment, raw value (MOP, GRK2; agonist 100 µM): 3.2449 and 4.0099 and 3.3544 and 3.8787
GRK2 recruitment, normalised (MOP, GRK2; agonist 100 µM): 99.67% and 133.63% and 104.53% and 127.81%
pEC50 GIRK [3]: 8.9
values normalised to 1µM DAMGO, mean ([3]; 1pM ligand): 5.028
values normalised to 1µM DAMGO (individual values) ([3]; 1pM ligand): 5.593 and 7.859 and 3.46 and 5.717 and 7.582 and 8.1092 and 3.374 and 6.042 and 4.849 and 0.5787 and 7.292 and 5.88 and 8.096 and 0.05434 and -0.3462 and 6.3053
values normalised to 1µM DAMGO, mean ([3]; 10pM ligand): 7.472
values normalised to 1µM DAMGO (individual values) ([3]; 10pM ligand): 15.49 and 11.6111 and 4.26 and 2.279 and 5.498 and 3.993 and 8.348 and 9.984 and 18.2069 and 4.03 and 10.8569 and 5.742 and 4.237 and 3.526 and 0.4892 and 11.0085
values normalised to 1µM DAMGO, mean ([3]; 100pM ligand): 9.137
values normalised to 1µM DAMGO (individual values) ([3]; 100pM ligand): 16.8969 and 12.3538 and 1.282 and -0.5086 and 23.733 and 7.982 and 12.165 and 15.3952 and 18.3102 and 7.555 and 2.414 and 2.004 and 6.703 and 3.838 and 4.846 and 11.227
values normalised to 1µM DAMGO, mean ([3]; 1nM ligand): 50.7802
values normalised to 1µM DAMGO (individual values) ([3]; 1nM ligand): 57.1798 and 57.3562 and 19.6942 and 27.9023 and 58.4493 and 49.8324 and 71.4212 and 70.7134 and 62.495 and 60.2954 and 56.8628 and 49.7728 and 53.0466 and 27.1278 and 35.6907 and 54.6435
values normalised to 1µM DAMGO, mean ([3]; 5nM ligand): 92.3187
values normalised to 1µM DAMGO, mean ([3]; 10nM ligand): 95.5035
values normalised to 1µM DAMGO, mean ([3]; 50nM ligand): 101.174
values normalised to 1µM DAMGO, mean ([3]; 100nM ligand): 99.3452
values normalised to 1µM DAMGO (individual values) ([3]; 100nM ligand): 100.4 and 100.34 and 112.066 and 111.922
values normalised to 1µM DAMGO, mean ([3]; 0.5µM ligand): 99.405
values normalised to 1µM DAMGO (individual values) ([3]; 0.5µM ligand): 99.2581 and 100.369 and 110.848 and 112.015 and 90.6195 and 92.807 and 98.2073 and 99.2624 and 100.349 and 111.9 and 110.485 and 68.4902 and 89.9215 and 98.2442 and 106.456 and 101.247
DAMGO 1µM signal in RFU ([3]; 1µM DAMGO, one value per experiment): 38.399 RFU and 40.2317 RFU and 34.405 RFU and 46.8468 RFU and 42.8267 RFU and 41.1246 RFU and 35.6065 RFU and 41.2536 RFU
values normalised to 1µM DAMGO, mean ([3]; 1µM ligand): 100
values normalised to 1µM DAMGO (individual values) ([3]; 1µM ligand): 102.126 and 101.322 and 95.8603 and 104.14 and 98.9994 and 101.001 and 101.569 and 98.4312 and 97.8738 and 109.455 and 90.5448 and 97.309 and 102.691 and 100.145 and 99.8548 and 98.6775

CN1CC[C@]23c4c5ccc(O)c4O[C@H]2[C@@H](O)C=C[C@H]3[C@H]1C5 [Morphine, morphine]
values normalised to 1µM DAMGO, mean ([3]; 1pM ligand): 6.485
values normalised to 1µM DAMGO, mean ([3]; 10pM ligand): 6.027
values normalised to 1µM DAMGO, mean ([3]; 100pM ligand): 6.211
values normalised to 1µM DAMGO, mean ([3]; 1nM ligand): 9.125
values normalised to 1µM DAMGO, mean ([3]; 5nM ligand): 29.6678
values normalised to 1µM DAMGO (individual values) ([3]; 5nM ligand): 45.7495 and 19.0875 and 13.0961 and 9.052 and 36.1933 and 47.9074 and 51.2561 and 57.2816 and 46.4485 and 43.1943 and 26.9461 and 14.2883 and 14.2724 and 18.5122 and 18.46 and 12.9399
values normalised to 1µM DAMGO, mean ([3]; 10nM ligand): 57.2564
values normalised to 1µM DAMGO (individual values) ([3]; 10nM ligand): 58.6156 and 56.0883 and 35.9476 and 44.5152 and 64.4335 and 68.3763 and 70.0077 and 70.5635 and 61.8308 and 50.7811 and 68.4527 and 63.2893 and 55.6505 and 50.3141 and 38.9941 and 58.2419
values normalised to 1µM DAMGO, mean ([3]; 50nM ligand): 66.3769
values normalised to 1µM DAMGO (individual values) ([3]; 50nM ligand): 62.166 and 62.2926 and 44.6191 and 54.7318 and 72.3421 and 70.8947 and 81.0497 and 84.3524 and 69.6407 and 82.417 and 82.3952 and 62.9287 and 75.1596 and 38.3592 and 49.3923 and 69.2894
values normalised to 1µM DAMGO, mean ([3]; 100nM ligand): 74.2194
values normalised to 1µM DAMGO (individual values) ([3]; 100nM ligand): 89.3793 and 68.637 and 62.5767 and 14.9163 and 86.9174 and 89.8616 and 87.7405 and 94.4167 and 90.0012 and 88.0147 and 94.1235 and 58.569 and 65.3044 and 67.2492 and 54.6739 and 75.1284
values normalised to 1µM DAMGO, mean ([3]; 0.5µM ligand): 76.9579
values normalised to 1µM DAMGO (individual values) ([3]; 0.5µM ligand): 87.9206 and 64.7531 and 55.8615 and 55.3841 and 81.7364 and 84.8283 and 97.4763 and 95.5436 and 86.95 and 86.0094 and 85.8902 and 63.7515 and 63.5249 and 73.9389 and 76.3702 and 71.3871
values normalised to 1µM DAMGO, mean ([3]; 1µM ligand): 72.8983
values normalised to 1µM DAMGO (individual values) ([3]; 1µM ligand): 75.501 and 68.3564 and 51.865 and 76.6338 and 75.1014 and 79.046 and 83.5821 and 81.3432 and 80.3317 and 85.1376 and 62.4253 and 66.1705 and 66.7508 and 75.1369 and 66.0921

C[C@@H](NC(=O)[C@@H](N)Cc1ccc(O)cc1)C(=O)NCC(=O)N(C)[C@@H](Cc1ccccc1)C(=O)NCCO [[3H]DAMGO]
saturation binding, mean, HEK293-native (WT-HEK293 cells; concentration 0.05 nM): 2.17
saturation binding, mean, HEK293-native (WT-HEK293 cells; concentration 2.05 nM): 2.19
saturation binding, mean, HEK293-native (WT-HEK293 cells; concentration 2.57 nM): 14.32
saturation binding, mean, HEK293-native (WT-HEK293 cells; concentration 4.21 nM): 26.91
saturation binding, mean, HEK293-native (WT-HEK293 cells; concentration 5.23 nM): 41.11
Bmax (MOP; 25°C, 60 min): 2279 ± 19 fmol/mg protein
saturation binding, mean, HEK293-MOP-HA (MOP; concentration 0.05 nM): 173.5
saturation binding, mean, HEK293-MOP-HA (MOP; concentration 2.05 nM): 1520.4
saturation binding, mean, HEK293-MOP-HA (MOP; concentration 2.57 nM): 1621.54
saturation binding, mean, HEK293-MOP-HA (MOP; concentration 4.21 nM): 1763.3
saturation binding, mean, HEK293-MOP-HA (MOP; concentration 5.23 nM): 2020.39
